The structures appear in SMILES notation.

The target of this assay is Acyl-CoA : cholesterol acyltransferase (ACAT). Description: Acyl-CoA : cholesterol acyltransferase (ACAT) inhibitory activity. In kind it is biochemical, Japanese white rabbits. The conditions noted are these: enzyme from mucosal microsome fraction of small intestine of rabbits fed 2% cholesterol diet; [14C]oleoyl-CoA and endogenous cholesterol, 37°C for 5 minutes. As to the method:
Acyl-CoA : cholesterol acyltransferase (ACAT) inhibitory activity
ACAT activity was measured by the method of Heider et al. described in Journal of Lipid Research, Vol. 24, page 1127 (1983). The enzyme ACAT was prepared from the mucosal microsome fraction of the small intestine of male, 18-week old Japanese white rabbits which had been fed diet containing 2% cholesterol for 8 weeks. The inhibitory activity of compounds were calculated by measuring the amount of the labeled cholesterol ester produced from [¹⁴C]oleoyl-CoA and endogenous cholesterol as follows. [¹⁴C]oleoyl-CoA and microsome were incubated with test compounds at 37°C for 5 minutes. The reaction was stopped by the addition of chloroform-methanol (2:1, V/V). Cholesterol ester fraction in the chloroform-methanol extracts was isolated by thin-layer chromatography and was counted their label.
For the compound `CCCCCCCN(Cc1cc2ccccc2o1)C(=O)Nc1c(F)cc(F)cc1F` [Example 3 - (9), N-(Benzofuran-2-ylmethyl)-N-heptyl-N'-(2,4,6-trifluorophenyl)urea], the IC50 was found to be 73 nM.
`O=C(Nc1c(F)cc(F)cc1F)N(Cc1oc2ccccc2c1-c1ccccc1)C1CCCCCC1` [Example 3 - (10), N-Cycloheptyl-N-(3-phenylbenzofuran-2-ylmethyl)-N'-(2,4,6-trifluorophenyl)urea] yielded an IC50 of 24 nM.
Compound `CCCCCCCN(Cc1oc2ccc(CC)cc2c1-c1ccc(Cl)cc1)C(=O)Nc1c(F)cc(F)cc1F` [Example 3 - (35), N-[3-(4-Chlorophenyl)-5-ethylbenzofuran-2-ylmethyl]-N-heptyl-N'-(2,4,6-trifluorophenyl)urea] registered an IC50 of 6.6 nM.
The value for `Cc1ccc2oc(CN(Cc3ccc(F)cc3)C(=O)Nc3c(F)cc(F)cc3F)c(-c3ccc(Cl)cc3)c2c1` [Example 5 - (7), N-[3-(4-Chlorophenyl)-5-methylbenzofuran-2-ylmethyl]-N-(4-fluorobenzyl)-N'-(2,4,6-trifluorophenyl)urea] was 8.8 nM.
The compound `Cc1ccc2oc(CN(Cc3ccco3)C(=O)Nc3c(F)cc(F)cc3F)c(-c3ccc(Br)cc3)c2c1` [Example 5 - (15), N-[3-(4-Bromophenyl)-5-methylbenzofuran-2-ylmethyl]-N-furfuryl-N'-(2,4,6-trifluorophenyl)urea] had an IC50 of 8.9 nM.
For the compound `Cc1ccc2oc(CN(Cc3ccccc3)C(=O)Nc3c(F)cc(F)cc3F)c(-c3ccc(Cl)cc3)c2c1` [Example 6 - (2), N-Benzyl-N-[3-(4-chlorophenyl)-5-methylbenzofuran-2-ylmethyl]-N'-(2,4,6-trifluorophenyl)urea], the IC50 was 7.4 nM.
The compound `Cc1ccc(-c2c(CN(Cc3ccccc3)C(=O)Nc3c(F)cc(F)cc3F)oc3ccc(Cl)cc23)cc1` [Example 6 - (6), N-Benzyl-N-[5-chloro-3-(4-methylphenyl)benzofuran-2-ylmethyl]-N'-(2,4,6-trifluorophenyl)urea] came in with an IC50 of 8.4 nM.
Take `Cc1ccc(CN(Cc2oc3ccc(C)cc3c2-c2ccc(Cl)cc2)C(=O)Nc2c(F)cc(F)cc2F)cc1` [Example 6 - (7), N-[3-(4-Chlorophenyl)-5-methylbenzofuran-2-ylmethyl]-N-(4-methylbenzyl)-N'-(2,4,6-trifluorophenyl)urea]: the IC50 was 4.4 nM.

As a reminder, the IC50 is the point on the concentration scale where inhibition reaches its midpoint. Lower therefore signals higher potency.

The values above are taken from patent publication EP0512570B1, “Urea derivatives, processes for the preparation thereof and pharmaceutical composition comprising the same” (FUJISAWA PHARMACEUTICAL CO., LTD., priority 1991, dated 1992).
